In patent publication US20200069691A1, “HETEROCYCLIC COMPOUNDS AS HIV PROTEASE INHIBITORS” (Merck Sharp & Dohme Corp., priority 2016, published 2020):

These molecules were tested against T1, wild-type HIV-1 protease (Human immunodeficiency virus type 1 group M subtype B, UniProt P04585) (assay: Assay for Inhibition of Microbial Expressed HIV Protease (peptide substrate cleavage, LC-MS/MS readout)). Conditions: E. coli expressed wild-type HIV-1 protease, mean of at least two independent experiments, read-out: HIV Pr Enzyme HIV1 PR IC50.
T1 construct: Escherichia coli expressed wild-type HIV-1 protease protein
Assay type: biochemical
Procedure: Assay for Inhibition of Microbial Expressed HIV Protease
Inhibition of Escherichia coli expressed wild-type HIV-1 protease protein was carried out with a peptide substrate [Val-Ser-Gln-Asn-(βnaphtyl)Ala-Pro-Ile-Val]. The inhibitor compound was preincubated with HIV-1 protease enzyme in assay buffer (50 mM sodium acetate, pH 5.5, 100 mM NaCl, and 0.1% BSA) for 30 minutes at room temperature. Peptide substrate was added to 400 μM in a total volume of 20 μL containing […] HIV-1 protease (final) after which the reaction was incubated for 1 hour at 30° C. […] The extent of inhibition of the reaction was determined from the peak area of the products.
Data shown in the table reflects the mean of at least two independent experiments.
`CN1CCOc2cc(-c3ncc4c(n3)CN(C(=O)c3cc(CN5C(=N)N[C@](CCCC(F)(F)F)(c6ccc(F)cc6)C5=O)ccc3C(F)(F)F)C4)cnc21` [Compound 45, (5R)-5-(4-fluorophenyl)-2-imino-3-[3-{[2-(4-methyl-3,4-dihydro-2H-pyrido[3,2-b][1,4]oxazin-7-yl)-5,7-dihydro-6H-pyrrolo[3,4-d]pyrimidin-6-yl]carbonyl}-4-(trifluoromethyl)benzyl]-5-(4,4,4-trifluorobutyl)imidazolidin-4-one] showed an IC50 of 4.6 nM.
Molecule `CC(C)Cn1cc(-c2ncc3c(n2)CN(C(=O)c2cc(CN4C(=N)N[C@](CCCC(F)(F)F)(c5ccc(F)cc5)C4=O)ccc2C(F)(F)F)C3)cn1` [Compound 46, (5R)-5-(4-fluorophenyl)-2-imino-3-[3-({2-[1-(2-methylpropyl)-1H-pyrazol-4-yl]-5,7-dihydro-6H-pyrrolo[3,4-d]pyrimidin-6-yl}carbonyl)-4-(trifluoromethyl)-benzyl]-5-(4,4,4-trifluorobutyl)-imidazolidin-4-one] has an IC50 of 4.82 nM.
`N=C1N[C@](CCCC(F)(F)F)(c2ccc(F)cc2)C(=O)N1Cc1ccc(C(F)(F)F)c(C(=O)N2Cc3cnc(-c4cccnc4)nc3C2)c1` [Compound 47, (5R)-5-(4-fluorophenyl)-2-imino-3-{3-[(2-pyridin-3-yl-5,7-dihydro-6H-pyrrolo[3,4-d]pyrimidin-6-yl)carbonyl]-4-(trifluoromethyl)-benzyl}-5-(4,4,4-trifluorobutyl)-imidazolidin-4-one] gave an IC50 of 4.91 nM.
Work on `Cc1nnc(-c2cccc(-c3ncc4c(n3)CN(C(=O)c3cc(CN5C(=N)N[C@](CCCC(F)(F)F)(c6ccc(F)cc6)C5=O)ccc3C(F)(F)F)C4)c2)o1` [Compound 48, (5R)-5-(4-fluorophenyl)-2-imino-3-[3-({2-[3-(5-methyl-1,3,4-oxadiazol-2-yl)phenyl]-5,7-dihydro-6H-pyrrolo[3,4-d]pyrimidin-6-yl}carbonyl)-4-(trifluoromethyl)-benzyl]-5-(4,4,4-trifluorobutyl)-imidazolidin-4-one] yielded an IC50 of 5.26 nM.
In the case of `N=C1N[C@](CCCC(F)(F)F)(c2ccc(F)cc2)C(=O)N1Cc1ccc(C(F)(F)F)c(C(=O)N2Cc3cnc(-c4cncnc4)nc3C2)c1` [Compound 49, (5R)-5-(4-fluorophenyl)-2-imino-3-{3-[(2-pyrimidin-5-yl-5,7-dihydro-6H-pyrrolo[3,4-d]pyrimidin-6-yl)carbonyl]-4-(trifluoromethyl)-benzyl}-5-(4,4,4-trifluorobutyl)-imidazolidin-4-one], the IC50 is reported as 5.43 nM.
`CSc1nnc2n1CCN(C(=O)c1cc(CN3C(=N)N[C@](CCCC(F)(F)F)(c4ccc(F)cc4)C3=O)ccc1C(F)(F)F)C2` [Compound 50, (5R)-5-(4-fluorophenyl)-2-imino-3-[3-{[3-(methylsulfanyl)-5,6-dihydro[1,2,4]triazolo[4,3-a]pyrazin-7(8H)-yl]carbonyl}-4-(trifluoromethyl)benzyl]-5-(4,4,4-trifluorobutyl)imidazolidin-4-one] showed an IC50 of 5.49 nM.
`CC(C)Nc1ncc2c(n1)CN(C(=O)c1cc(CN3C(=N)N[C@](CCCC(F)(F)F)(c4ccc(F)cc4)C3=O)ccc1C(F)(F)F)C2` [Compound 51, (5R)-5-(4-fluorophenyl)-2-imino-3-[3-({2-[(1-methylethyl)amino]-5,7-dihydro-6H-pyrrolo[3,4-d]pyrimidin-6-yl}carbonyl)-4-(trifluoromethyl)benzyl]-5-(4,4,4-trifluorobutyl)imidazolidin-4-one] showed an IC50 of 5.51 nM.
In the case of `COc1cc(-c2ncc3c(n2)CN(C(=O)c2cc(CN4C(=N)N[C@](CCCC(F)(F)F)(c5ccc(F)cc5)C4=O)ccc2C(F)(F)F)C3)ccn1` [Compound 52, (5R)-5-(4-fluorophenyl)-2-imino-3-[3-{[2-(2-methoxypyridin-4-yl)-5,7-dihydro-6H-pyrrolo[3,4-d]pyrimidin-6-yl]carbonyl}-4-(trifluoromethyl)benzyl]-5-(4,4,4-trifluorobutyl)imidazolidin-4-one], the IC50 is reported as 5.58 nM.
For `N=C1N[C@](CCCC(F)(F)F)(c2ccc(F)cc2)C(=O)N1Cc1ccc(C(F)(F)F)c(C(=O)N2Cc3cnc(-c4ccncc4)nc3C2)c1` [Compound 53, (5R)-5-(4-fluorophenyl)-2-imino-3-{3-[(2-pyridin-4-yl-5,7-dihydro-6H-pyrrolo[3,4-d]pyrimidin-6-yl)carbonyl]-4-(trifluoromethyl)-benzyl}-5-(4,4,4-trifluorobutyl)-imidazolidin-4-one], the IC50 was 5.63 nM.
`CC(C)CC[C@]1(c2ccc(F)cc2)NC(=N)N(C(Cc2ccccc2)c2ccc(C(F)(F)F)c(C(=O)N3CCn4c(nnc4C(F)(F)F)C3)c2)C1=O` (stereo partly drawn) [Compound 54, (5R)-5-(4-fluorophenyl)-2-imino-5-(3-methylbutyl)-3-{2-phenyl-1-[4-(trifluoromethyl)-3-{[3-(trifluoromethyl)-5,6-dihydro-[1,2,4]triazolo[4,3-a]pyrazin-7(8H)-yl]carbonyl}phenyl]ethyl} imidazolidin-4-one] showed an IC50 of 5.65 nM.
`N=C1N[C@](CCCC(F)(F)F)(c2ccc(F)cc2)C(=O)N1Cc1ccc(C(F)(F)F)c(C(=O)N2Cc3cnc(-c4ccc5cnccc5c4)nc3C2)c1` [Compound 55, (5R)-5-(4-fluorophenyl)-2-imino-3-{3-[(2-isoquinolin-6-yl-5,7-dihydro-6H-pyrrolo[3,4-d]pyrimidin-6-yl)carbonyl]-4-(trifluoromethyl)-benzyl}-5-(4,4,4-trifluorobutyl)-imidazolidin-4-one] showed an IC50 of 5.99 nM.
`CC(C)CC[C@]1(c2ccc(F)cc2)NC(=N)N(C(CCCc2ccccc2)c2ccc(C(F)(F)F)c(C(=O)N3CCn4c(nnc4C(F)(F)F)C3)c2)C1=O` (stereo partly drawn) [Compound 56, (5R)-5-(4-fluorophenyl)-2-imino-5-(3-methylbutyl)-3-{4-phenyl-1-[4-(trifluoromethyl)-3-{[3-(trifluoromethyl)-5,6-dihydro[1,2,4]-triazolo[4,3-a]pyrazin-7(8H)-yl]carbonyl}-phenyl]butyl}imidazolidin-4-one] gave an IC50 of 6.19 nM.
`N=C1N[C@](CCCC(F)(F)F)(c2ccc(F)cc2)C(=O)N1Cc1ccc(C(F)(F)F)c(C(=O)N2Cc3cnc(N)nc3C2)c1` [Compound 57, (5R)-3-{3-[(2-amino-5,7-dihydro-6H-pyrrolo[3,4-d]pyrimidin-6-yl)carbonyl]-4-(trifluoromethyl)-benzyl}-5-(4-fluorophenyl)-2-imino-5-(4,4,4-trifluorobutyl)-imidazolidin-4-one] gave an IC50 of 6.24 nM.
With `N#Cc1ncc2c(n1)CN(C(=O)c1cc(CN3C(=N)N[C@](CCCC(F)(F)F)(c4ccc(F)cc4)C3=O)ccc1C(F)(F)F)C2` [Compound 58, 6-{[5-{[(4R)-4-(4-fluorophenyl)-2-imino-5-oxo-4-(4,4,4-trifluorobutyl)imidazolidin-1-yl]methyl}-2-(trifluoromethyl)-phenyl]carbonyl}-6,7-dihydro-5H-pyrrolo[3,4-d] pyrimidine-2-carbonitrile] the IC50 was 6.43 nM.
With `CC(=O)c1cccc(-c2ncc3c(n2)CN(C(=O)c2cc(CN4C(=N)N[C@](CCCC(F)(F)F)(c5ccc(F)cc5)C4=O)ccc2C(F)(F)F)C3)c1` [Compound 59, (5R)-3-[3-{[2-(3-acetylphenyl)-5,7-dihydro-6H-pyrrolo[3,4-d]pyrimidin-6-yl]carbonyl}-4-(trifluoromethyl)benzyl]-5-(4-fluorophenyl)-2-imino-5-(4,4,4-trifluorobutyl)imidazolidin-4-one] the IC50 was 6.45 nM.
